In patent US20090318446A1, “4-(1H-Indol-3-yl)-Pyrimidin-2-Ylamine Derivatives and Their Use in Therapy” (Cyclacel Limited, priority 2005, published 2009) one finds IC50 data, which are given here for three compounds.

The target of experiment [1] is Drosophila Aurora A (Drosophila melanogaster, UniProt Q9VGF9). The experiment is described as follows: Aurora A kinase assay (Drosophila enzyme). The format is biochemical. The conditions noted are these: Table 3, values marked *: Drosophila Aurora A; read-out: Kinase inhibition Aurora A (*Drosophila Aurora A). As for the experimental part: (§1) The compounds from the examples above were investigated for their ability to inhibit the enzymatic activity of various protein kinases. This was achieved by measurement of incorporation of radioactive phosphate from ATP into appropriate polypeptide substrates. Recombinant protein kinases and kinase complexes were produced or obtained commercially. Assays were performed using 96-well plates and appropriate assay buffers (typically 25 mM β-glycerophosphate, 20 mM MOPS, 5 mM EGTA, 1 mM DTT, 1 mM […], pH 7.4), into which were added 2-4 μg of active enzyme with appropriate substrates. The reactions were initiated by addition of Mg/ATP mix (15 mM MgCl2+100 μM ATP with 30-50 kBq per well of [γ-^32P]-ATP) and mixtures incubated as required at 30° C. Reactions were stopped on ice, followed by filtration through p81 filterplates or GF/C filterplates (Whatman Polyfiltronics, Kent, UK). After washing 3 times with 75 mM aq orthophosphoric acid, plates were dried, scintillant added and incorporated radioactivity measured in a scintillation counter (TopCount, Packard Instruments, Pangbourne, Berks, UK). Compounds for kinase assay were made up as 10 mM stocks in DMSO and diluted into 10% DMSO in assay buffer. Data was analysed using curve-fitting software (GraphPad Prism version 3.00 for Windows, GraphPad Software, San Diego Calif. USA) to determine IC50 values (concentration of test compound which inhibits kinase activity by 50%).

Experiment [2] deals with CDK1/cyclin B (Homo sapiens, UniProt P06493). The experiment is described as follows: Kinase assay CDK1/cyclin B. The format is biochemical. The note with it: Table 2; read-out: Kinase inhibition IC50 CDK1B. As for the experimental part: as §1
Experiment [3] addresses GSK-3β (Oryctolagus cuniculus, UniProt G1T8E2). As to the kind of experiment: GSK-3β kinase assay. The format is biochemical, rabbit. The note with it: Table 2; read-out: Kinase inhibition IC50 GSK3. As for the experimental part:
GSK-3 was obtained from New England Biolabs (UK) Ltd., Hitchin, Herts. The recombinant enzyme was isolated from a strain of E. coli that carries a clone expressing GSK-3β derived from a rabbit skeletal muscle cDNA library [Wang, Q. M.; Fiol, C. J.; DePaoli-Roach, A. A.; Roach, P. J. J. Biol. Chem., 1994, 269, 14566]. Inhibition of GSK-3 function was assessed by measurement of phosphorylation of CREB phosphopeptide KRREILSRRPphosphoSYR in the presence of test compounds. Using a 96-well assay format, GSK3 (7.5 U) was incubated for 30 min at 30° C. in a total volume of 25 μL in 20 mM MOPS pH 7.2, 25 mM β-glycerophosphate, 5 mM EGTA, 1 mM DTT, 1 mM […], 40 μM CREB peptide, 15 mM MgCl2 and 100 μM ATP (containing 0.25 μCi [γ-^32P]-ATP) in the presence of varying concentrations of test compound. The samples were transferred to 96-well p81 filter plates (Whatman Polyfiltronics, Kent, UK), and the plates were washed 4 times with 200 μL/well of 75 mM aq orthophosphoric acid. Scintillation liquid (50 μL) was added to each well, and incorporated radioactivity for each sample was determined using a scintillation counter (TopCount, Packard Instruments, Pangbourne, Berks, UK).

Sequence of CDK1/cyclin B (P06493 whole entry, species assumed): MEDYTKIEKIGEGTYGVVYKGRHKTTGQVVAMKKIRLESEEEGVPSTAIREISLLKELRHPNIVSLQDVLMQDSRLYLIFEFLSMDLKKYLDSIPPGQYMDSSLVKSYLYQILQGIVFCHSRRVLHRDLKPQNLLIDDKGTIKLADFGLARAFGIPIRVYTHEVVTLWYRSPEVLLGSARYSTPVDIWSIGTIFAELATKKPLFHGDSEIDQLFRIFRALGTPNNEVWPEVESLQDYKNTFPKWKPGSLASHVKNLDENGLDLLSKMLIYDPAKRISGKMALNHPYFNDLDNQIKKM
Sequence of CDK1/cyclin B (P14635 whole entry partner, species assumed): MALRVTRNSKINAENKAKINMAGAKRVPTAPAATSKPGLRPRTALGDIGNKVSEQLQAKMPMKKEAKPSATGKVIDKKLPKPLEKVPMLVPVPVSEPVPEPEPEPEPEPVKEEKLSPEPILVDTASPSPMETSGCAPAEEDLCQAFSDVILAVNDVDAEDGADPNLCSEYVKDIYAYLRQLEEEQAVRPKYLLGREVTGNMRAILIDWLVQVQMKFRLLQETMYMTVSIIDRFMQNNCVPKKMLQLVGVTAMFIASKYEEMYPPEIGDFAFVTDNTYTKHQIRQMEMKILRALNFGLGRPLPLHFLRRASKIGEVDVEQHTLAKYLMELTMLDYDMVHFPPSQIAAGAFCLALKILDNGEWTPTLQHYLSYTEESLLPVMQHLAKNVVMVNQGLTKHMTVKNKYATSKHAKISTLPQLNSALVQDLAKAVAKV
Sequence of Drosophila Aurora A (Q9VGF9 entry or part of it): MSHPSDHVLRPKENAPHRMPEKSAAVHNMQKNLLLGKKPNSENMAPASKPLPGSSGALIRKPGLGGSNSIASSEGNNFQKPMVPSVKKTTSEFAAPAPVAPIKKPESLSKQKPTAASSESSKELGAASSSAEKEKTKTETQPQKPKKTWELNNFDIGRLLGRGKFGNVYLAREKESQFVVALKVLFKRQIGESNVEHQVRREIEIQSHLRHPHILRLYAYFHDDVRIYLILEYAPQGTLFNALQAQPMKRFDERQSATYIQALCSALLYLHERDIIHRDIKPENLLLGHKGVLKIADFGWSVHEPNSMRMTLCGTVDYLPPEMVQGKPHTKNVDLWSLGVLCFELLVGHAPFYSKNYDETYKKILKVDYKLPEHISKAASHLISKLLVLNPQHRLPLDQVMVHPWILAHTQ
Sequence of GSK-3β (G1T8E2 1-432): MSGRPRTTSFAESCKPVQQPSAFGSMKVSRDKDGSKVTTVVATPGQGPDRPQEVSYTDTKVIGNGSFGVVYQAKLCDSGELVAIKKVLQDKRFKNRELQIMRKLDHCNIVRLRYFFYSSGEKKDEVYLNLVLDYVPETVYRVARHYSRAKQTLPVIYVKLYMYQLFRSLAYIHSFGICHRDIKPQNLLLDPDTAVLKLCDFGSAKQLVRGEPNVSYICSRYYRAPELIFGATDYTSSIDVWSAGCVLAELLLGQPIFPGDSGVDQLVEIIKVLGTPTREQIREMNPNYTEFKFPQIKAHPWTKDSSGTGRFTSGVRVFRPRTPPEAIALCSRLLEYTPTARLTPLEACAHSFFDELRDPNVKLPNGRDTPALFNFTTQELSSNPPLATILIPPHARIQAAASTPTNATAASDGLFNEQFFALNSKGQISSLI

On to `O=[N+]([O-])c1cccc(Nc2nccc(-c3c[nH]c4ccccc34)n2)c1` [Compound 2, [4-(1H-Indol-3-yl)-pyrimidin-2-yl]-(3-nitro-phenyl)-amine], for which the IC50 is 274 nM in experiment [1], more than 100000 nM in experiment [2] and 2100 nM in experiment [3].

Regarding `Fc1ccc(Nc2nccc(-c3c[nH]c4ccccc34)n2)cc1` [Compound 3, (4-Fluoro-phenyl)-[4-(1H-indol-3-yl)-pyrimidin-2-yl]-amine], the results for the IC50 in experiment [1], in experiment [2] and in experiment [3] were 1050 nM, more than 100000 nM and 8700 nM, respectively.

For `COc1ccc(Nc2nccc(-c3c[nH]c4ccccc34)n2)cn1` [Compound 4, [4-(1H-Indol-3-yl)-pyrimidin-2-yl]-(6-methoxy-pyridin-3-yl)-amine], the IC50 turned out to be 243 nM in experiment [1], 1900 nM in experiment [2] and 1600 nM in experiment [3].
